# Where a name gives a salt, the structure may show the parent alone. Read-outs that look alike come from different tables or passages of the source.
# Experiments:
# [1] = system: patients hospitalized for acute heart failure (AHF); conditions: 1.0 μg/kg/min group; Carubelli et al.; cited from earlier work
# [2] = system: patients hospitalized for acute heart failure (AHF); conditions: intention-to-treat analysis, Carubelli et al., cited from earlier work
# [3] = system: patients hospitalized for acute heart failure (AHF); parameters: species or system human; conditions: in vivo
# Description: The primary efficacy endpoint was the change from baseline to 24 h after the start of the infusion in the E/e ratio assessed by tissue Doppler echocardiography. Secondary endpoints included the change from baseline to 24 h of other echocardiography parameters: LVEF, left ventricular end-systolic and end-diastolic volumes, stroke volume index, E, A, E/A ratio, and S′: changes in dyspnoea by visual analogue scale (VAS) and in NT-proBNP from baseline to 24 h: proportion of patients with hospital readmissions or emergency visits for cardiovascular reasons by day 30; proportion of patients with episodes of in-hospital worsening heart failure to day 4, and length of stay. […] Safety endpoints were assessed throughout the study and included: incidence of adverse events (AEs): change in vital signs and in 12-lead electrocardiographic (ECG) parameters: incidence of clinically or haemodynamically significant episodes of supraventricular or ventricular arrhythmias detected by continuous ECG monitoring: standard laboratory parameters: renal function: cardiac troponin T (cTnT): incidence of cTnT elevations, and mortality at day 30. […]
# The study design included a 24 h screening period, a 24 h study drug infusion phase (day 1), a post-treatment phase (days 2-4), and a follow-up visit at day 30 (FIG. 5). […] AEs were monitored throughout the duration of the study.
structure (smiles),measurement,setting,value
"C[C@]12CCC(=NOCCN)C[C@@H]1C(=O)C[C@@H]1[C@@H]2CC[C@]2(C)C(=O)CC[C@@H]12 [Istaroxime, (E,Z)-3-((2-aminoethoxy)imino)androstane-6,17-dione hydrochloride]","Serious adverse events, percent",[1],15%
same,mean change in E/e′ ratio at 24 h,[2]; 0.5 μg/kg/min,−4.55 (4.75)
same,mean change in E/e′ ratio at 24 h,[2]; 1.0 μg/kg/min,−3.16 (2.59)
same,"clinically significant arrhythmias, 24 h Holter monitoring",[3],no differences

# Source: patent US12697343B2, “Intravenous istaroxime for the treatment of acute heart failure” (Seismic Pharmaceuticals Operations LLC, priority 2021, dated 2026)
